We go through four compounds from EPA's ToxRefDB 2.

Data set [1] concerns rabbit. The settings on record: Prenatal developmental toxicity study, new zealand white, Oral, Gavage/Intubation, dose end: 19 GD.
In data set [2] the test system is rat. The note with it: Subchronic oral toxicity in rodents, sprague dawley, Feed, dose end: 90 day, group: systemic, systemic / hematology / platelet / platelet + systemic / urinalysis / ketones / ketones.
Data set [3] deals with rat. The note with it: Reproduction/developmental toxicity screening test; wistar; Injection; Intraperitoneal; dose end: 45 PND; group: parental; systemic / organ weight / ovary / nos.
Data set [4] has as its system mouse. The settings on record: Reproduction/developmental toxicity screening test; cd1; Injection; Intraperitoneal; dose end: 14 day; group: maternal; reproductive / reproductive performance / fertility / fertility + reproductive / reproductive performance / implantations / implantations + ….
Data set [5] relates to rat. The settings on record: Fertility (Segment I), wistar, Injection, Intraperitoneal, dose end: 7 day.
The subject of data set [6] is rabbit. The settings on record: Prenatal developmental toxicity study, himalayan, Oral, Gavage/Intubation, dose end: 19 GD.
In data set [7] the test system is mouse. The settings on record: Carcinogenicity, b6c3f1, Oral, Feed, dose end: 78 week, group: systemic.
The test system of data set [8] is dog. The note with it: Chronic toxicity, beagle, Oral, Feed, dose end: 52 week, group: systemic.
Data set [9] deals with mouse. The settings on record: Subchronic oral toxicity in rodents, b6c3f1, Feed, dose end: 90 day, group: systemic.
Data set [10] has as its system rat. The settings on record: Subchronic oral toxicity in rodents, sprague dawley, Feed, dose end: 13 week, group: systemic, systemic / in life observation / body weight / body weight + systemic / in life observation / body weight / body weight gain + systemic / in….
Data set [11] deals with mouse. The note with it: Carcinogenicity; cd1; Oral; [Not Specified]; dose end: 18 month; group: systemic; systemic / in life observation / body weight / body weight + systemic / in life observation / body weight / body weight gain.
The subject of data set [12] is dog. The note with it: Chronic toxicity; beagle; Oral; Feed; dose end: 24 month; group: systemic; systemic / in life observation / body weight / body weight gain + systemic / in life observation / food consumption / food efficiency + ….
For data set [13], the system named is rat. The settings on record: Combined chronic toxicity/carcinogenicity, sprague dawley, Oral, Feed, dose end: 24 month, group: systemic.
Data set [14] deals with rat. The note with it: Multigenerational reproductive toxicity study, sprague dawley, Oral, Gavage/Intubation, dose end: 2 generation.
Data set [15] deals with rat. The note with it: Multigenerational reproductive toxicity study, sprague dawley, Oral, Feed, dose end: 2 generation.
The subject of data set [16] is rat. The settings on record: Prenatal developmental toxicity study, wistar, Oral, Gavage/Intubation, dose end: 19 GD.
Setting [17] is: group: developmental, systemic / in life observation / body weight / fetal weight.
[18] abbreviates: group: maternal, reproductive / reproductive performance / aborted / aborted + reproductive / reproductive performance / postimplantation loss / ….
Setting [19] is: group: maternal, systemic / in life observation / body weight / body weight gain.
Setting [20] is: group: maternal, reproductive / reproductive performance / estrous cycle / length.
The mark [21] stands for this setting: group: parental, systemic / clinical chemistry / estradiol / estradiol, free + systemic / pathology microscopic / vagina / diestrus.
[22] abbreviates: group: maternal, systemic / in life observation / body weight / body weight gain + systemic / in life observation / food consumption / food consumption.
[23] abbreviates: group: maternal, systemic / in life observation / body weight / body weight gain + systemic / in life observation / food consumption / food consumption + ….
[24] abbreviates: systemic / in life observation / body weight / body weight + systemic / organ weight / brain / nos + systemic / organ weight / kidney / nos.
Setting [25] is: systemic / organ weight / liver / relative to body weight.
Setting [26] is: systemic / organ weight / liver / relative to body weight + systemic / clinical chemistry / alanine aminotransferase (alt/sgpt) / alanine ….
Setting [27] is: systemic / in life observation / body weight / body weight gain.
[28] abbreviates: systemic / in life observation / body weight / body weight gain + systemic / organ weight / kidney / absolute.
Setting [29] is: systemic / in life observation / body weight / body weight + systemic / in life observation / body weight / body weight gain + systemic / in….
[30] abbreviates: group: offspring, developmental / offspring survival late / lactation index / lactation index + developmental / offspring survival late / viability index / ….
Where [31] appears, read: group: parental, systemic / in life observation / clinical signs / salivation + systemic / in life observation / body weight / body weight gain + systemic / ….
Setting [32] is: group: reproductive, reproductive / offspring survival early / litter size / litter size.
The mark [33] stands for this setting: group: parental, systemic / in life observation / body weight / body weight.
[34] abbreviates: group: reproductive, reproductive / reproductive performance / gestational length / gestational length.
[35] abbreviates: group: developmental, developmental / developmental malformation / bone / incomplete ossification.
Where [36] appears, read: group: developmental, developmental / developmental malformation / bone / incomplete ossification + systemic / in life observation / body weight / fetal weight.
Where [37] appears, read: group: maternal, systemic / in life observation / mortality / mortality + reproductive / offspring survival early / dead fetuses / dead fetuses.
Setting [38] is: group: maternal, systemic / in life observation / mortality / mortality + reproductive / reproductive performance / postimplantation loss / postimplantation ….

In the data set with rabbit [1] (setting [17]), `COc1cc(OC)nc(NC(=O)NS(=O)(=O)c2ncccc2C(=O)N(C)C)n1` [Nicosulfuron] gave an LEL of 100 mg/kg/day, an LOAEL of 1000 mg/kg/day, an NEL of under 100 mg/kg/day and an NOAEL of 500 mg/kg/day. Further, in the data set on rabbit [1] (setting [18]), the LOAEL amounted to 500 mg/kg/day and the NOAEL turned out to be 100 mg/kg/day. Also, in the data set with rabbit [1] (setting [19]), the LEL stood at 100 mg/kg/day and the NEL was under 100 mg/kg/day. Further, in the data set on rat [2], the LEL worked out at 15 mg/kg/day, the LOAEL stood at 15 mg/kg/day, the NEL is under 15 mg/kg/day and the NOAEL is under 15 mg/kg/day.

As to `CC(=O)S[C@@H]1CC2=CC(=O)CC[C@]2(C)[C@H]2CC[C@@]3(C)[C@@H](CC[C@@]34CCC(=O)O4)[C@H]12` [Spironolactone], the LEL with rat [3], with mouse [4], with rat [5] (setting [20]) and in the data set on rat [5] (setting [21]) was 100 mg/kg/day throughout. In addition, the LOAEL with rat [3], in the data set with mouse [4], in the data set with rat [5] (setting [20]) and in the data set with rat [5] (setting [21]) was over 100 mg/kg/day throughout. Besides, the NEL in the data set on rat [3], with mouse [4], in the data set on rat [5] (setting [20]) and in the data set on rat [5] (setting [21]) was under 100 mg/kg/day in each case. Moreover, the NOAEL in the data set with rat [3], in the data set on mouse [4], in the data set with rat [5] (setting [20]) and in the data set on rat [5] (setting [21]) was at least 100 mg/kg/day throughout.

For `O=C(O)c1c(Cl)ccc2cc(Cl)cnc12` [Quinclorac], the LEL came out at 600 mg/kg/day in the data set on rabbit [6] (setting [17]); 200 mg/kg/day in the data set on rabbit [6] (setting [22]); 150 mg/kg/day with mouse [7] (systemic / in life observation / body weight / body weight + systemic / organ weight / kidney / nos); 34.5 mg/kg/day in the data set on dog [8] (setting [25]); 1000 mg/kg/day in the data set on mouse [9] (setting [28]). Moreover, the LOAEL in the data set with rabbit [6] (setting [17]) stood at 600 mg/kg/day; in the data set with rabbit [6] (setting [22]), 200 mg/kg/day; in the data set with mouse [7] (systemic / in life observation / body weight / body weight), 150 mg/kg/day; in the data set on dog [8] (setting [26]), 469 mg/kg/day; in the data set with mouse [9] (setting [27]), 1000 mg/kg/day. The NEL is 200 mg/kg/day in the data set with rabbit [6] (setting [17]); 70 mg/kg/day in the data set on rabbit [6] (setting [23]); 37.5 mg/kg/day in the data set on mouse [7] (setting [24]); under 34.5 mg/kg/day in the data set with dog [8] (setting [25]); under 1000 mg/kg/day with mouse [9] (setting [28]). For the same compound, the NOAEL in the data set with rabbit [6] (setting [17]) is 200 mg/kg/day; in the data set with rabbit [6] (setting [23]), 70 mg/kg/day; in the data set with mouse [7] (setting [24]), 37.5 mg/kg/day; in the data set on dog [8] (setting [26]), 140 mg/kg/day; in the data set with mouse [9] (setting [27]), under 1000 mg/kg/day.

Turning to `CCCOC(=O)NCCCN(C)C.Cl` [Propamocarb hydrochloride], the LEL with rat [10] came out at 716 mg/kg/day; with mouse [11] it was 95 mg/kg/day; in the data set on dog [12], 22.8 mg/kg/day; with rat [13] (setting [29]) it was 682 mg/kg/day; with rat [14] (setting [30]) it was 1000 mg/kg/day; in the data set with rat [14] (setting [31]) it was 200 mg/kg/day. Moreover, the LEL with rat [14] (setting [32]) was found to be 1000 mg/kg/day; in the data set with rat [15] (group: offspring, systemic / organ weight / brain / absolute), 85.3 mg/kg/day; with rat [15] (setting [33]), 407 mg/kg/day; in the data set with rat [15] (setting [34]) it was 467 mg/kg/day; with rat [16] (setting [35]) it was 740 mg/kg/day; in the data set on rat [16] (setting [37]) it was 740 mg/kg/day. Further, the LOAEL in the data set with rat [10] is 716 mg/kg/day; in the data set with mouse [11], 95 mg/kg/day; in the data set with dog [12], 22.8 mg/kg/day; in the data set with rat [13] (setting [29]), 682 mg/kg/day; in the data set on rat [14] (setting [30]), 1000 mg/kg/day; in the data set on rat [14] (setting [31]) it was 1000 mg/kg/day. For the same compound, the LOAEL with rat [14] (setting [32]) was 1000 mg/kg/day; in the data set on rat [15] (group: offspring, systemic / in life observation / body weight / offspring (pup) weight), 485 mg/kg/day; in the data set on rat [15] (setting [33]) it was 407 mg/kg/day; in the data set with rat [15] (setting [34]), over 467 mg/kg/day; with rat [16] (setting [35]), 740 mg/kg/day; in the data set with rat [16] (setting [37]), 740 mg/kg/day. The NEL in the data set with rat [10] is 363 mg/kg/day; in the data set with mouse [11], 12 mg/kg/day; in the data set with dog [12], under 22.8 mg/kg/day; in the data set with rat [13] (systemic / pathology microscopic / brain / vacuolization), 84 mg/kg/day; with rat [14] (setting [30]) it was 200 mg/kg/day; in the data set on rat [14] (setting [31]), 50 mg/kg/day. Further, the NEL in the data set with rat [14] (setting [32]) was 200 mg/kg/day; with rat [15] (group: offspring, systemic / organ weight / brain / absolute + systemic / in life observation / body weight / offspring (pup) weight + systemic / organ weight…), 14.2 mg/kg/day; with rat [15] (setting [33]), 65.4 mg/kg/day; in the data set on rat [15] (setting [34]) it was 76.8 mg/kg/day; in the data set with rat [16] (setting [36]), 221 mg/kg/day; in the data set on rat [16] (setting [38]) it was 221 mg/kg/day. Also, the no observed adverse effect level (NOAEL) in the data set with rat [10] was 363 mg/kg/day; in the data set on mouse [11] it was 12 mg/kg/day; in the data set with dog [12] it was under 22.8 mg/kg/day; with rat [13] (setting [29]) it was 84 mg/kg/day; in the data set with rat [14] (setting [30]) it was 200 mg/kg/day; in the data set with rat [14] (setting [31]), 200 mg/kg/day. Moreover, the no observed adverse effect level (NOAEL) is 200 mg/kg/day in the data set on rat [14] (setting [32]); 75.4 mg/kg/day with rat [15] (group: offspring, systemic / in life observation / body weight / offspring (pup) weight + systemic / organ weight / brain / relative to body weight + systemic…); 65.4 mg/kg/day in the data set with rat [15] (setting [33]); at least 467 mg/kg/day in the data set with rat [15] (setting [34]); 221 mg/kg/day in the data set on rat [16] (setting [36]); 221 mg/kg/day with rat [16] (setting [38]).

Usually LOAEL stands for the lowest tested level that showed an adverse finding. What is called NOAEL is the highest tested level that showed no adverse finding.
